Our source for the IC50 values is patent publication US10183950B2, “Thienopyrimidine inhibitors of atypical protein kinase C” (Cancer Research Technology Limited, priority 2011, dated 2019).

Structures are written as SMILES. Bounds are passed on as bounds.

This assay addresses T1, full-length human PKCι (Homo sapiens, UniProt P41743).
T1 construct: Recombinant, full-length human PKCι expressed in Sf21 insect cells is also commercially available; purchased; host or cells: Sf21 insect cells
T1 sequence (P41743 1-596): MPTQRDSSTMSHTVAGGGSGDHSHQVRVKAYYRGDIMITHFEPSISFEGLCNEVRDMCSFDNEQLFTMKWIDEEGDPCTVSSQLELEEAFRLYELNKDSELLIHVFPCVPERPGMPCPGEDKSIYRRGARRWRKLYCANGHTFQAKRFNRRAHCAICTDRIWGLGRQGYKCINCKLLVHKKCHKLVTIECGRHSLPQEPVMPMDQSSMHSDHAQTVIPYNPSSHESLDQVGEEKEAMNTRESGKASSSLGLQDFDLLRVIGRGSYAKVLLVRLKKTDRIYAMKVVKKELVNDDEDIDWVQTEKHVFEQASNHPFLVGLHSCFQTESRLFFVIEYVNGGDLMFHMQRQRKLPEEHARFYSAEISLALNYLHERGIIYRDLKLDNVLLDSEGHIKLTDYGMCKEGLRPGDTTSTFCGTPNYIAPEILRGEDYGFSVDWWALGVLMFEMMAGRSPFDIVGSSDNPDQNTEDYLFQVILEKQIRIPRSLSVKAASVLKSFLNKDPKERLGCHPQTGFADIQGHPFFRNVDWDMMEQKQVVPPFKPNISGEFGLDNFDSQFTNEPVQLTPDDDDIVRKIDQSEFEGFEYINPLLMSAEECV
In words: PKCι IC50 IMAP fluorescence polarisation assay, full-length enzyme. It counts as biochemical. The following applies: full length PKCi at 15 μM ATP; read-out: IC50 in IMAP assay against full length PKCi. A general note: In fluorescence polarisation assays a small probe gives low polarisation when free and higher when bound to something large.
Regarding `CCCC#Cc1csc2c(NC[C@@H](N)Cc3ccccc3)nc(-c3ccncc3)nc12` [compound 401, (S)-N*1*-(7-Pent-1-ynyl-2-pyridin-4-yl-thieno[3,2-d]pyrimidin-4-yl)-3-phenyl-propane-1,2-diamine], the IC50 (commonly the concentration needed to halve the response being measured) lay in the range of 100 to 1000 nM.
As for `N[C@H](CNc1nc(-c2ccncc2)nc2c(C#Cc3ccccc3)csc12)Cc1ccccc1` [compound 402, (S)-3-Phenyl-N*1*-(7-phenylethynyl-2-pyridin-4-yl-thieno[3,2-d]pyrimidin-4-yl)-propane-1,2-diamine], the figure is 100 to 1000 nM; as for `c1cc(-c2nc(N[C@@H]3CCNC3)c3scc(-c4ccn[nH]4)c3n2)ccn1` [compound 403, [7-(2H-Pyrazol-3-yl)-2-pyridin-4-yl-thieno[3,2-d]pyrimidin-4-yl]-(R)-pyrrolidin-3-yl-amine], less than 100 nM; as for `COC/C=C/c1csc2c(NC[C@@H](N)Cc3ccccc3)nc(-c3ccncc3)nc12` [compound 404, (S)-N*1*-[7-((E)-3-Methoxy-propenyl)-2-pyridin-4-yl-thieno[3,2-d]pyrimidin-4-yl]-3-phenyl-propane-1,2-diamine], 100 to 1000 nM.
As for `N[C@H](CNc1nc(-c2ccncc2)nc2c(/C=C/C3CC3)csc12)Cc1ccccc1` [compound 405, (S)-N*1*-[7-((E)-2-Cyclopropyl-vinyl)-2-pyridin-4-yl-thieno[3,2-d]pyrimidin-4-yl]-3-phenyl-propane-1,2-diamine], the figure is less than 100 nM; as for `CC(C)(C)/C=C/c1csc2c(NC[C@@H](N)Cc3ccccc3)nc(-c3ccncc3)nc12` [compound 406, (S)-N*1*-[7-((E)-3,3-Dimethyl-but-1-enyl)-2-pyridin-4-yl-thieno[3,2-d]pyrimidin-4-yl]-3-phenyl-propane-1,2-diamine], 1000 to 10000 nM.
Regarding `C/C=C\c1csc2c(NC[C@@H](N)Cc3ccccc3)nc(-c3ccncc3)nc12` [compound 407, (S)-3-Phenyl-N*1*-[7-((Z)-propenyl)-2-pyridin-4-yl-thieno[3,2-d]pyrimidin-4-yl]-propane-1,2-diamine], the IC50 was less than 100 nM.
On to `C=Cc1csc2c(NC[C@@H](N)Cc3ccccc3)nc(-c3ccncc3)nc12` [compound 408, (S)-3-Phenyl-N*1*-(2-pyridin-4-yl-7-vinyl-thieno[3,2-d]pyrimidin-4-yl)-propane-1,2-diamine], for which the IC50 is less than 100 nM.
Next, `N[C@H](CNc1nc(-c2ccncc2)nc2c(-c3ccc(F)cc3)csc12)Cc1ccccc1` [compound 409, (S)-N*1*-[7-(4-Fluoro-phenyl)-2-pyridin-4-yl-thieno[3,2-d]pyrimidin-4-yl]-3-phenyl-propane-1,2-diamine]: 100 to 1000 nM; `N[C@H](CNc1nc(-c2ccncc2)nc2c(-c3cccnc3)csc12)Cc1ccccc1` [compound 410, (S)-3-Phenyl-N*1*-(2-pyridin-4-yl-7-pyridin-3-yl-thieno[3,2-d]pyrimidin-4-yl)-propane-1,2-diamine]: 1000 to 10000 nM; `Cn1cc(-c2csc3c(NC[C@@H](N)Cc4ccccc4)nc(-c4ccncc4)nc23)cn1` [compound 411, (S)-N*1*-[7-(1-Methyl-1H-pyrazol-4-yl)-2-pyridin-4-yl-thieno[3,2-d]pyrimidin-4-yl]-3-phenyl-propane-1,2-diamine]: 1000 to 10000 nM.
Next, `Cc1ccc(-c2csc3c(NC[C@@H](N)Cc4ccccc4)nc(-c4ccncc4)nc23)o1` [compound 412, (S)-N*1*-[7-(5-Methyl-furan-2-yl)-2-pyridin-4-yl-thieno[3,2-d]pyrimidin-4-yl]-3-phenyl-propane-1,2-diamine]: 1000 to 10000 nM; `N[C@H](CNc1nc(-c2ccncc2)nc2c(C3CC3)csc12)Cc1ccccc1` [compound 413, (S)-N*1*-(7-Cyclopropyl-2-pyridin-4-yl-thieno[3,2-d]pyrimidin-4-yl)-3-phenyl-propane-1,2-diamine]: less than 100 nM; `N[C@@H](CNc1nc(-c2ccncc2)nc2c(-c3ccn[nH]3)csc12)Cc1ccccc1` [compound 414, (R)-3-Phenyl-N*1*-[7-(1H-pyrazol-3-yl)-2-pyridin-4-yl-thieno[3,2-d]pyrimidin-4-yl]-propane-1,2-diamine]: 100 to 1000 nM.
As for `Cn1ccc(-c2csc3c(NC[C@@H](N)Cc4ccccc4)nc(-c4ccncc4)nc23)n1` [compound 415, (S)-N*1*-[7-(1-Methyl-1H-pyrazol-3-yl)-2-pyridin-4-yl-thieno[3,2-d]pyrimidin-4-yl]-3-phenyl-propane-1,2-diamine], the IC50 fell in the range of 1000 to 10000 nM.
For the molecule `N[C@H](CNc1nc(-c2ccncc2F)nc2c(-c3cc[nH]n3)csc12)Cc1ccccc1` [compound 416, (S)-N*1*-[2-(3-Fluoro-pyridin-4-yl)-7-(1H-pyrazol-3-yl)-thieno[3,2-d]pyrimidin-4-yl]-3-phenyl-propane-1,2-diamine], the IC50 is less than 100 nM.
`N[C@H](CNc1nc(-c2ccncc2)nc2c(-c3ccccc3)csc12)Cc1ccccc1` [compound 417, (S)-3-Phenyl-N*1*-(7-phenyl-2-pyridin-4-yl-thieno[3,2-d]pyrimidin-4-yl)-propane-1,2-diamine]: the IC50 lay within 100 to 1000 nM.
Turning to `N[C@H](CNc1nc(-c2ccncc2)nc2c(-c3cc(C4CC4)[nH]n3)csc12)Cc1ccccc1` [compound 418, (S)-N*1*-[7-(5-Cyclopropyl-1H-pyrazol-3-yl)-2-pyridin-4-yl-thieno[3,2-d]pyrimidin-4-yl]-3-phenyl-propane-1,2-diamine], the IC50 was in the range of 100 to 1000 nM.
Consider `N[C@H](CNc1nc(-c2ccncc2F)nc2c(-c3ccc[nH]3)csc12)Cc1ccccc1` [compound 419, (S)-N*1*-[2-(3-Fluoro-pyridin-4-yl)-7-(1H-pyrrol-2-yl)-thieno[3,2-d]pyrimidin-4-yl]-3-phenyl-propane-1,2-diamine], for which the IC50 lay within 100 to 1000 nM.
In the case of `N[C@H](CNc1nc(-c2ccncc2F)nc2c(-c3cc[nH]c3)csc12)Cc1ccccc1` [compound 420, (S)-N*1*-[2-(3-Fluoro-pyridin-4-yl)-7-(1H-pyrrol-3-yl)-thieno[3,2-d]pyrimidin-4-yl]-3-phenyl-propane-1,2-diamine], the IC50 lay in the range of 100 to 1000 nM.
As for `N[C@H](CNc1nc(-c2ccncc2F)nc2c(-c3cc(C(F)(F)F)[nH]n3)csc12)Cc1ccccc1` [compound 421, (S)-N*1*-[2-(3-Fluoro-pyridin-4-yl)-7-(5-trifluoromethyl-2H-pyrazol-3-yl)-thieno[3,2-d]pyrimidin-4-yl]-3-phenyl-propane-1,2-diamine], the figure is 1000 to 10000 nM; as for `Cc1ccccc1-c1csc2c(NC[C@@H](N)Cc3ccccc3)nc(-c3ccncc3F)nc12` [compound 433, (S)-N*1*-[2-(3-Fluoro-pyridin-4-yl)-7-o-tolyl-thieno[3,2-d]pyrimidin-4-yl]-3-phenyl-propane-1,2-diamine], 1000 to 10000 nM; as for `N[C@H](CNc1nc(-c2ccncc2F)nc2c(-c3ccccc3)csc12)Cc1ccccc1` [compound 434, (S)-N*1*-[2-(3-Fluoro-pyridin-4-yl)-7-phenyl-thieno[3,2-d]pyrimidin-4-yl]-3-phenyl-propane-1,2-diamine], 1000 to 10000 nM.
As for `NCc1coc(-c2csc3c(NC[C@@H](N)Cc4ccccc4)nc(-c4ccncc4F)nc23)c1` [compound 435, S)-N*1*-[7-(4-Aminomethyl-furan-2-yl)-2-(3-fluoro-pyridin-4-yl)-thieno[3,2-d]pyrimidin-4-yl]-3-phenyl-propane-1,2-diamine], the figure is 1000 to 10000 nM; as for `CC(C)(C)c1sc2c(NC[C@@H](N)Cc3ccccc3)nc(-c3ccncc3)nc2c1-c1cccc(F)c1` [compound 436, (S)-N*1*-[6-tert-Butyl-7-(3-fluoro-phenyl)-2-pyridin-4-yl-thieno[3,2-d]pyrimidin-4-yl]-3-phenyl-propane-1,2-diamine], 10000 to 40000 nM; as for `CC(C)(C)c1sc2c(NC[C@@H](N)Cc3ccccc3)nc(-c3ccncc3)nc2c1-c1cn[nH]c1` [compound 437, (S)-N*1*-[6-tert-Butyl-7-(1H-pyrazol-4-yl)-2-pyridin-4-yl-thieno[3,2-d]pyrimidin-4-yl]-3-phenyl-propane-1,2-diamine], 1000 to 10000 nM.
For `Cc1sc2c(NC[C@@H](N)Cc3ccccc3)nc(-c3ccncc3)nc2c1-c1ccc(F)nc1` [compound 438, (S)-N*1*-[7-(6-Fluoro-pyridin-3-yl)-6-methyl-2-pyridin-4-yl-thieno[3,2-d]pyrimidin-4-yl]-3-phenyl-propane-1,2-diamine], the IC50 was 1000 to 10000 nM.
As for `COc1ccncc1-c1c(C)sc2c(NC[C@@H](N)Cc3ccccc3)nc(-c3ccncc3)nc12` [compound 439, (S)-N*1*-[7-(4-Methoxy-pyridin-3-yl)-6-methyl-2-pyridin-4-yl-thieno[3,2-d]pyrimidin-4-yl]-3-phenyl-propane-1,2-diamine], the figure is 10000 to 40000 nM.
Next, `COc1cccc(OC(C)C)c1-c1c(C)sc2c(NC[C@@H](N)Cc3ccccc3)nc(-c3ccncc3)nc12` [compound 440, (S)-N*1*-[7-(2-Isopropoxy-6-methoxy-phenyl)-6-methyl-2-pyridin-4-yl-thieno[3,2-d]pyrimidin-4-yl]-3-phenyl-propane-1,2-diamine]: 10000 to 40000 nM.
